In patent US7696374B2, “Arylalklcarbamate derivatives, preparation method thereof and use of same in therapeutics” (Sanofi-Aventis, priority 2003, dated 2010):

With `COc1ccc(OC(=O)NCc2ccc(Oc3ccccc3)cc2)cc1` the melting point was 89 to 91 °C. `Cc1ccc(OC(=O)NCCc2ccc(-c3ccccc3)cc2)cc1` showed a melting point of 172 to 174 °C. Work on `O=C(NCc1ccc(-c2ccccc2)cc1)Oc1ccc(F)cc1` yielded a melting point of 155 to 157 °C. `O=C(NCc1ccc(-c2ccccc2)cc1)OCC(F)(F)F` [Compound No. 1, 2,2,2-Trifluoroethyl 1,1′-biphenyl-4-ylmethylcarbamate] showed a melting point of 123 to 125 °C. With `O=C(NCc1ccc(Oc2ccccc2)cc1)OCC(F)(F)F` [Compound No. 10, 2,2,2-Trifluoroethyl 4-phenyloxybenzylcarbamate] the melting point was 145 to 148 °C. `O=C(NCCc1ccc(-c2ccccc2)cc1)OCC(F)(F)F` [Compound No. 19, 2,2,2-Trifluoroethyl 2-(1,1′-biphenyl-4-yl)ethylcarbamate] showed a melting point of 79 to 81 °C.
